The values below come from patent US20240190855A1 (Relay Therapeutics, Inc., priority 2021, published 2024).

SMILES strings stand for the structures. Some results are limits rather than exact numbers.

The target in one test is target tagged with nanoLuciferase in 293-NB2 cells (Homo sapiens, UniProt P24941). Kind of test: nanoBRET TE Intracellular Kinase Assay (Cell nanoBRET Assay). The class given is cell-based.
Conditions: not given
The protocol:
Compounds described herein were also tested in a nanoBRET TE Intracellular Kinase Assay. Test compounds were prepared in a DMSO stock solution. 45 uL of stock solution was transferred to a 384 well plate (Greiner, 781201), and a 3-fold 11-point dilution was performed. 293-NB2 cells expressing target tagged with nanoLuciferase were diluted in cell growth media (DMEM+10% FBS+1% Pen/Strep media) and a 40 uL cell solution of 7.5E4 cells/mL was seeded in a separate 384 well cell culture plate and incubated overnight at 37° C./5% CO2/100% humidity. […] 80 nL of each concentration of compound was transferred from the compound plate to a corresponding well in the cell culture plate by Echo550 liquid handler. The plates were incubated for 2 hrs at 37° C./5% CO2/100% humidity. […] Chemiluminescence was then read on an EnVision reader (PerkinElmer).
Background: BRET reads energy transfer from a luciferase to a nearby fluorophore.
`Cc1cc(CC(=O)Nc2cc([C@@H]3CCC[C@H](OC(=O)NC4(C)CC4)CC3)[nH]n2)on1` (single isomer, unassigned) [Example 24]: the IC50 lay within 250 to 1000 nM.
`Cc1cc(CC(=O)Nc2cc([C@H]3CC[C@@H](CC(=O)NC4(C)CC4)C3)[nH]n2)on1` (single isomer, unassigned) [Example 28]: the IC50 lay in the range of 1000 to 100000 nM.
The same measure, in the same setting: as for `Cc1cc(CC(=O)Nc2cc([C@@H]3CC[C@@H](CC(=O)NC4(C)CC4)C3)[nH]n2)on1` (single isomer, unassigned) [Example 31], the figure is 1000 to 100000 nM.
As for `Cc1cc(CC(=O)Nc2ncn([C@@H]3CC[C@H](OC(=O)NC4(C)CC4)C3)n2)on1` (single isomer, unassigned) [Example 40], the IC50 lay in the range of 1000 to 100000 nM.
The compound `C=C(C)c1ccncc1O[C@@H]1CC[C@H](c2cc(NC(=O)Cc3cc(C)no3)n[nH]2)C1` (single isomer, unassigned) [Example 57] returned an IC50 of at most 100 nM.
The compound `C=C(C)c1ccncc1O[C@H]1CC[C@@H](c2cc(NC(=O)Cc3cc(C)no3)n[nH]2)C1` (single isomer, unassigned) [Example 58] gave an IC50 of at most 100 nM.
On the same count and under the same terms, as for `Cc1cc(CC(=O)Nc2cc([C@H]3CC[C@@H](NC(=O)NC(C)C)C3)[nH]n2)on1` (single isomer, unassigned) [Example 83], the figure is 1000 to 100000 nM.
The compound `Cc1cc(CC(=O)Nc2cc([C@H]3CC[C@@H](N4CC(C)(C)NC4=O)C3)[nH]n2)on1` (single isomer, unassigned) [Example 91] had an IC50 of 1000 to 100000 nM.
With `Cc1cc(CC(=O)Nc2cc([C@@H]3CC[C@H](NC(=O)NC(C)C)C3)[nH]n2)on1` (single isomer, unassigned) [Example 102], the IC50 fell in the range of 1000 to 100000 nM.
In turn, `Cc1cc(CC(=O)Nc2cc([C@H]3CC[C@@H](N4CC(C)(C)NC4=O)C3)[nH]n2)on1` (single isomer, unassigned) [Example 117] yielded an IC50 of 1000 to 100000 nM.
The compound `Cc1cc(CC(=O)Nc2cc([C@H]3CC[C@@H](Oc4nnccc4C)C3)[nH]n2)on1` (single isomer, unassigned) [Example 119] returned an IC50 of 250 to 1000 nM.
The compound `CC(C)NC(=O)O[C@@H]1CC[C@H](c2cc(NC(=O)c3ccnn3C)n[nH]2)C1` [Example 5] displayed an IC50 of at most 100 nM.
Still for that read-out and setting: as for `CC(C)NC(=O)O[C@H]1CC[C@@H](c2cc(NC(=O)c3ccnn3C)n[nH]2)C1` [Example 6], the figure is 100 to 250 nM; as for `CC1(NC(=O)O[C@@H]2CC[C@H](c3cc(NC(=O)Cc4ccccc4)n[nH]3)C2)CC1` [Example 7], at most 100 nM.
The compound `COCc1cc(C(=O)Nc2cc([C@@H]3CC[C@H](OC(=O)N(C)C(C)C)C3)[nH]n2)n(C)n1` [Example 8] gave an IC50 of 100 to 250 nM.
Still for that read-out and setting: next, `CC1(NC(=O)O[C@H]2CC[C@@H](c3cc(NC(=O)Cc4ccccc4)n[nH]3)C2)CC1` [Example 9]: at most 100 nM; `CC(C)NC(=O)O[C@@H]1CC[C@H](c2cc(NC(=O)Cc3ccccc3)n[nH]2)C1` [Example 12]: 100 to 250 nM; `CC(C)NC(=O)O[C@@H]1CC[C@H](c2cc(NC(=O)c3ccnc4ncsc34)n[nH]2)C1` [Example 13]: at most 100 nM.
In turn, `CC(C)NC(=O)O[C@@H]1CC[C@H](c2cc(NC(=O)Cc3ccccc3S(C)(=O)=O)n[nH]2)C1` [Example 14] showed an IC50 of 100 to 250 nM.
On the same count and under the same terms, next, `Cc1cc(C(=O)Nc2cc([C@H]3CC[C@@H](OC(=O)NC(C)C)C3)[nH]n2)on1` [Example 17]: 1000 to 100000 nM; `CC(C)NC(=O)O[C@@H]1CC[C@H](c2cc(NC(=O)Cc3ccnn3C)n[nH]2)C1` [Example 18]: 250 to 1000 nM.
`CC(C)NC(=O)O[C@@H]1CC[C@H](c2cc(NC(=O)c3c[n+](C(C)(C)C)nn3C)n[nH]2)C1` [Example 19] gave an IC50 of 1000 to 100000 nM.
For the compound `Cc1cc(CC(=O)Nc2cc([C@H]3CC[C@@H](OC(=O)NCCC(C)(C)O)C3)[nH]n2)on1` [Example 23], the IC50 lay within 1000 to 100000 nM.
`CC(C)NC(=O)O[C@@H]1CC[C@H](c2cc(NC(=O)Cn3nnc4ccccc4c3=O)n[nH]2)C1` [Example 41] gave an IC50 of 1000 to 100000 nM.
On to `CNC(=O)O[C@@H]1CC[C@H](c2cc(NC(=O)Cc3cc(C)no3)n[nH]2)C1` [Example 42], for which the IC50 was 1000 to 100000 nM.
Same read-out and setting: next, `Cc1cc(CC(=O)Nc2cc([C@H]3CC[C@@H](C(=O)NC(C)C)CC3)[nH]n2)on1` [Example 55]: 1000 to 100000 nM.
Turning to `Cc1cc(CC(=O)Nc2cc([C@H]3CC[C@H](C(=O)NC(C)C)CC3)[nH]n2)on1` [Example 56], the IC50 lay within 1000 to 100000 nM.
Take `CC(C)NC(=O)O[C@@H]1CC[C@H](c2cc(NC(=O)Cc3cnc4ncnn4c3)n[nH]2)C1` [Example 107]: the IC50 is 1000 to 100000 nM.
As to `Cc1cc(CC(=O)Nc2cc([C@H]3C[C@@H](OC(=O)NC(C)C)C3)[nH]n2)on1` [Example 110], the IC50 lay within 1000 to 100000 nM.
On to `CCC(=O)O[C@@H]1CC[C@H](c2cc(NC(=O)Cc3cc(C)no3)n[nH]2)C1` [Example 115], for which the IC50 fell in the range of 1000 to 100000 nM.
The same measure, in the same setting: next, `Cc1cc(CC(=O)Nc2cc([C@H]3CC[C@@H](OC(=O)NC(C)C)CC3)[nH]n2)on1` [Example 116]: 250 to 1000 nM.

The target in another test is T1, CDK2/Cyclin E complex (Homo sapiens, UniProt P24941).
T1 construct: purchased Eurofins 14-475
Put plainly: CDK2/Cyclin E fluorescence-based microfluidic mobility shift assay (CDK2 Biochemical Caliper Assay). The settings on record: read-out: Biochemical CDK2/CyclinE Caliper IC50. Summed up:
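Microfluidic mobility-shift readout after EDTA termination measured phosphorylation of fluorescent FL Peptide 18 (1.5 uM final) in a 20 hr room-temperature reaction. Compounds were tested at 11 concentrations (3-fold).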
On to `Cc1cc(CC(=O)Nc2cc([C@@H]3CCC[C@H](OC(=O)NC4(C)CC4)CC3)[nH]n2)on1` (single isomer, unassigned) [Example 24], for which the IC50 lay in the range of 100 to 250 nM.
As to `Cc1cc(CC(=O)Nc2cc([C@H]3CC[C@@H](CC(=O)NC4(C)CC4)C3)[nH]n2)on1` (single isomer, unassigned) [Example 28], the IC50 lay in the range of 1000 to 100000 nM.
`Cc1cc(CC(=O)Nc2cc([C@@H]3CC[C@@H](CC(=O)NC4(C)CC4)C3)[nH]n2)on1` (single isomer, unassigned) [Example 31]: the IC50 was 1000 to 100000 nM.
Same read-out and setting: next, `Cc1cc(CC(=O)Nc2ncn([C@@H]3CC[C@H](OC(=O)NC4(C)CC4)C3)n2)on1` (single isomer, unassigned) [Example 40]: 1000 to 100000 nM.
The same measure, in the same setting: next, `C=C(C)c1ccncc1O[C@@H]1CC[C@H](c2cc(NC(=O)Cc3cc(C)no3)n[nH]2)C1` (single isomer, unassigned) [Example 57]: at most 100 nM.
Regarding `C=C(C)c1ccncc1O[C@H]1CC[C@@H](c2cc(NC(=O)Cc3cc(C)no3)n[nH]2)C1` (single isomer, unassigned) [Example 58], the IC50 is at most 100 nM.
Consider `Cc1cc(CC(=O)Nc2cc([C@H]3CC[C@@H](NC(=O)NC(C)C)C3)[nH]n2)on1` (single isomer, unassigned) [Example 83], for which the IC50 lay in the range of 1000 to 100000 nM.
Still for that read-out and setting: as for `Cc1cc(CC(=O)Nc2cc([C@H]3CC[C@@H](N4CC(C)(C)NC4=O)C3)[nH]n2)on1` (single isomer, unassigned) [Example 91], the figure is at most 100 nM; as for `Cc1cc(CC(=O)Nc2cc([C@@H]3CC[C@H](NC(=O)NC(C)C)C3)[nH]n2)on1` (single isomer, unassigned) [Example 102], 1000 to 100000 nM.
The same measure, in the same setting: next, `Cc1cc(CC(=O)Nc2cc([C@H]3CC[C@@H](N4CC(C)(C)NC4=O)C3)[nH]n2)on1` (single isomer, unassigned) [Example 117]: at most 100 nM; `Cc1cc(CC(=O)Nc2cc([C@H]3CC[C@@H](Oc4nnccc4C)C3)[nH]n2)on1` (single isomer, unassigned) [Example 119]: at most 100 nM; `CC(C)NC(=O)O[C@@H]1CC[C@H](c2cc(NC(=O)c3ccnn3C)n[nH]2)C1` [Example 5]: at most 100 nM.
`CC(C)NC(=O)O[C@H]1CC[C@@H](c2cc(NC(=O)c3ccnn3C)n[nH]2)C1` [Example 6]: the IC50 was at most 100 nM.
For the compound `CC1(NC(=O)O[C@@H]2CC[C@H](c3cc(NC(=O)Cc4ccccc4)n[nH]3)C2)CC1` [Example 7], the IC50 was at most 100 nM.
Turning to `COCc1cc(C(=O)Nc2cc([C@@H]3CC[C@H](OC(=O)N(C)C(C)C)C3)[nH]n2)n(C)n1` [Example 8], the IC50 was at most 100 nM.
For the compound `CC1(NC(=O)O[C@H]2CC[C@@H](c3cc(NC(=O)Cc4ccccc4)n[nH]3)C2)CC1` [Example 9], the IC50 is at most 100 nM.
On to `CC(C)NC(=O)O[C@@H]1CC[C@H](c2cc(NC(=O)Cc3ccccc3)n[nH]2)C1` [Example 12], for which the IC50 is at most 100 nM.
Turning to `CC(C)NC(=O)O[C@@H]1CC[C@H](c2cc(NC(=O)c3ccnc4ncsc34)n[nH]2)C1` [Example 13], the IC50 was at most 100 nM.
For `CC(C)NC(=O)O[C@@H]1CC[C@H](c2cc(NC(=O)Cc3ccccc3S(C)(=O)=O)n[nH]2)C1` [Example 14], the IC50 is at most 100 nM.
`Cc1cc(C(=O)Nc2cc([C@H]3CC[C@@H](OC(=O)NC(C)C)C3)[nH]n2)on1` [Example 17]: the IC50 was at most 100 nM.
Still for that read-out and setting: next, `CC(C)NC(=O)O[C@@H]1CC[C@H](c2cc(NC(=O)Cc3ccnn3C)n[nH]2)C1` [Example 18]: at most 100 nM.
For `CC(C)NC(=O)O[C@@H]1CC[C@H](c2cc(NC(=O)c3c[n+](C(C)(C)C)nn3C)n[nH]2)C1` [Example 19], the IC50 lay within 250 to 1000 nM.
Consider `Cc1cc(CC(=O)Nc2cc([C@H]3CC[C@@H](OC(=O)NCCC(C)(C)O)C3)[nH]n2)on1` [Example 23], for which the IC50 was 100 to 250 nM.
Still for that read-out and setting: next, `CC(C)NC(=O)O[C@@H]1CC[C@H](c2cc(NC(=O)Cn3nnc4ccccc4c3=O)n[nH]2)C1` [Example 41]: at most 100 nM.
With `CNC(=O)O[C@@H]1CC[C@H](c2cc(NC(=O)Cc3cc(C)no3)n[nH]2)C1` [Example 42], the IC50 lay within 100 to 250 nM.
Still for that read-out and setting: next, `Cc1cc(CC(=O)Nc2cc([C@H]3CC[C@@H](C(=O)NC(C)C)CC3)[nH]n2)on1` [Example 55]: 1000 to 100000 nM; `Cc1cc(CC(=O)Nc2cc([C@H]3CC[C@H](C(=O)NC(C)C)CC3)[nH]n2)on1` [Example 56]: 1000 to 100000 nM; `CC(C)NC(=O)O[C@@H]1CC[C@H](c2cc(NC(=O)Cc3cnc4ncnn4c3)n[nH]2)C1` [Example 107]: 250 to 1000 nM.
On the same count and under the same terms, next, `Cc1cc(CC(=O)Nc2cc([C@H]3C[C@@H](OC(=O)NC(C)C)C3)[nH]n2)on1` [Example 110]: at most 100 nM.
As to `CCC(=O)O[C@@H]1CC[C@H](c2cc(NC(=O)Cc3cc(C)no3)n[nH]2)C1` [Example 115], the IC50 was 100 to 250 nM.
As for `Cc1cc(CC(=O)Nc2cc([C@H]3CC[C@@H](OC(=O)NC(C)C)CC3)[nH]n2)on1` [Example 116], the IC50 was at most 100 nM.
